Experimental data from patent US10221173B2, “Chemical compounds” (AstraZeneca AB, priority 2017, dated 2019).
Values after ≈ are worked out from the molar mass of the structure shown.

Tests used:
[1] = target: estrogen receptor (ERα) in CAMA-1 cells (Homo sapiens (Human), UniProt P03372); assay: Western blotting assay, ER down-regulation in CAMA-1; type: cell-based; conditions: CAMA-1, 100 nM compound, 48 h, vs 100 nM fulvestrant
[2] = target: T1, Estrogen Receptor (ERα) in MCF-7 cells (Homo sapiens (Human), UniProt P03372); assay: Western blotting assay, ER down-regulation in MCF-7; type: cell-based; conditions: MCF-7, 100 nM compound, 48 h, vs 100 nM fulvestrant
[3] = Thermodynamic solubility (shake-flask); type: physicochemical; conditions: aqueous phosphate buffer, 25 °C, pH 7.4, aqueous buffer, thermodynamic from solid, phosphate buffer pH 7.4, 24 hours
Method: The thermodynamic solubility of a research compound is measured under standard conditions. It is a shake-flask approach that uses 10 mM DMSO solutions which are supplied from the Compound Managements liquid store and is a high throughput method. The dried compounds are equilibrated in an aqueous phosphate buffer (pH 7.4) for 24 hours at 25° C., the portion with the dissolved compound is then separated from the remains. The solutions are analyzed and quantified using UPLC/MS/MS, QC-samples are incorporated in each assay-run to ensure the quality of the assay.

[4] = target: recombinant human Estrogen Receptor alpha ligand binding domain (ER alpha-LBD (GST)) (Homo sapiens (Human), UniProt P03372); assay: ERα binding assay (LanthaScreen TR-FRET competition)
[5] = target: T1, Estrogen Receptor (ERα) in MCF-7 cells; assay: MCF-7 ER down-regulation assay (immuno-fluorescence); type: cell-based
[6] = Log D (shake flask, 1-octanol/aqueous buffer); type: physicochemical; conditions: 1-octanol/aqueous buffer, pH 7.4, pH 7.4
[7] = Human plasma protein binding (equilibrium dialysis); type: in vitro ADME

recombinant human Estrogen Receptor alpha ligand binding domain (ER alpha-LBD (GST)), sequence (P03372 307-554): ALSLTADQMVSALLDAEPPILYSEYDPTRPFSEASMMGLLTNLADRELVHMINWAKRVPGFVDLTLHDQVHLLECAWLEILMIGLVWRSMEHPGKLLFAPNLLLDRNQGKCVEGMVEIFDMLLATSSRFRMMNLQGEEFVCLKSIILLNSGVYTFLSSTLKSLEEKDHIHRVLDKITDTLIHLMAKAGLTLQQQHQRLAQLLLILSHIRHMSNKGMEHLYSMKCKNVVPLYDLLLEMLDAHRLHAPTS
T1 sequence (P03372 whole entry): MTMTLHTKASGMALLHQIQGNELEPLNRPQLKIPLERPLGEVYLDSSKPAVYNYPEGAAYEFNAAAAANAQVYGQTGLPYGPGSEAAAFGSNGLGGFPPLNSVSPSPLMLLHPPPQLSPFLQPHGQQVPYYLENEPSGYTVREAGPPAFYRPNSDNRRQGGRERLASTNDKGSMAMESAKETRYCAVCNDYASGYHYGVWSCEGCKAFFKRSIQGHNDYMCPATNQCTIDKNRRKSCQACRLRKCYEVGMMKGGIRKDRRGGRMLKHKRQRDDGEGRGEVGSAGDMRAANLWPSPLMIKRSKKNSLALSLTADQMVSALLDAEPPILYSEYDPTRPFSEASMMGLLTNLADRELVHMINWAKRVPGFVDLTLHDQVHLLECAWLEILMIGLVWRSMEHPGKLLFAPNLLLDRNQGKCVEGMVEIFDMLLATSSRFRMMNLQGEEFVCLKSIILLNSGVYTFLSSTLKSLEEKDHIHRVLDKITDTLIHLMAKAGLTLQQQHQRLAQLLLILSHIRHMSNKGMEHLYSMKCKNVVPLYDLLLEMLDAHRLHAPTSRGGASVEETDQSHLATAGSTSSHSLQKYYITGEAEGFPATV
estrogen receptor (ERα) in CAMA-1 cells, sequence (P03372 whole entry): as above

| Compound | CAMA1 Western % ER deg vs Fv [1] | MCF7 Western % ER deg vs Fv [2] | solubility at 24 h [3] | IC50 [4] | IC50 [5] | logD [6] | Human plasma protein binding (% free) [7] |
| --- | --- | --- | --- | --- | --- | --- | --- |
| COc1ccc(OCCNCCCF)cc1[C@@H]1c2[nH]c3ccccc3c2C[C@@H](C)N1CC1(F)COC1 [Example 4, 3-Fluoro-N-(2-(3-((1R,3R)-2-((3-fluorooxetan-3-yl)methyl)-3-methyl-2,3,4,9-tetrahydro-1H-pyrido[3,4-b]indol-1-yl)-4-methoxyphenoxy)ethyl)propan-1-amine] | 75% | 56% | 543 µM (≈ 271 µg/mL) | – | – | – | – |
| CCc1ccc(OCCNCCCF)cc1[C@@H]1c2[nH]c3ccccc3c2C[C@@H](C)N1CC(F)(F)F [Example 21, N-(2-(4-ethyl-3-((1R,3R)-3-methyl-2-(2,2,2-trifluoroethyl)-2,3,4,9-tetrahydro-1H-pyrido[3,4-b]indol-1-yl)phenoxy)ethyl)-3-fluoropropan-1-amine] | 95% | 99% | 3 µM (≈ 1.47 µg/mL) | 2600 pM | 1600 pM | 4.6 | 0.10 % free |
| COc1ccc(OCCNCCCF)cc1[C@@H]1c2[nH]c3ccccc3c2C[C@@H](C)N1CC(F)F [Example 6, N-(2-(3-((1R,3R)-2-(2,2-difluoroethyl)-3-methyl-2,3,4,9-tetrahydro-1H-pyrido[3,4-b]indol-1-yl)-4-methoxyphenoxy)ethyl)-3-fluoropropan-1-amine] | 81% | 97% | 154 µM (≈ 73.2 µg/mL) | – | – | – | – |
| Cc1c(OCCNCCC(F)F)ccc(F)c1[C@@H]1c2[nH]c3ccccc3c2C[C@@H](C)N1C[C@@H](C)C(=O)O [Example 123, (R)-3-((1R,3R)-1-(3-(2-((3,3-difluoropropyl)amino)ethoxy)-6-fluoro-2-methylphenyl)-3-methyl-1,3,4,9-tetrahydro-2H-pyrido[3,4-b]indol-2-yl)-2-methylpropanoic acid] | 90% | 91% | – | 11000 pM | 960 pM | – | – |
| COc1ccc(OCCNCCCF)cc1[C@@H]1c2[nH]c3ccccc3c2C[C@@H](C)N1CC(F)(F)CO [Example 8, 2,2-Difluoro-3-((1R,3R)-1-(5-(2-((3-fluoropropyl)amino)ethoxy)-2-methoxyphenyl)-3-methyl-1,3,4,9-tetrahydro-2H-pyrido[3,4-b]indol-2-yl)propan-1-ol] | 93% | 98% | 617 µM (≈ 312 µg/mL) | – | – | – | – |
| C[C@@H]1Cc2c([nH]c3ccccc23)[C@@H](c2c(F)cnc(OCCNCCCF)c2Cl)N1CC(F)(F)CO [Example 111, 3-((1R,3R)-1-(3-chloro-5-fluoro-2-(2-((3-fluoropropyl)amino)ethoxy)pyridin-4-yl)-3-methyl-1,3,4,9-tetrahydro-2H-pyrido[3,4-b]indol-2-yl)-2,2-difluoropropan-1-ol] | 92% | 84% | 469 µM (≈ 248 µg/mL) | 600 pM | 70 pM | 3.1 | 1.4 % free |
| Cc1c(OCCNCCC(F)F)ccc(F)c1[C@@H]1c2[nH]c3ccccc3c2C[C@@H](C)N1C[C@H](C)C(=O)O [Example 124, (S)-3-((1R,3R)-1-(3-(2-((3,3-Difluoropropyl)amino)ethoxy)-6-fluoro-2-methylphenyl)-3-methyl-1,3,4,9-tetrahydro-2H-pyrido[3,4-b]indol-2-yl)-2-methylpropanoic acid] | 82% | 93% | – | 3900 pM | 680 pM | – | – |
| C[C@@H]1Cc2c([nH]c3ccccc23)[C@@H](c2cccc(OCCNCCCF)c2)N1CC(F)(F)F [Example 16, 3-fluoro-N-(2-(3-((1R,3R)-3-methyl-2-(2,2,2-trifluoroethyl)-2,3,4,9-tetrahydro-1H-pyrido[3,4-b]indol-1-yl)phenoxy)ethyl)propan-1-amine] | 83% | 89% | 74 µM (≈ 34.3 µg/mL) | – | – | – | – |
| Cc1c(OCCNCCCF)ccc(F)c1[C@@H]1c2[nH]c3ccccc3c2C[C@@H](C(F)F)N1C[C@H](C)C(=O)O [Example 137, (S)-3-((1R,3S)-3-(difluoromethyl)-1-(6-fluoro-3-(2-((3-fluoropropyl)amino)ethoxy)-2-methylphenyl)-1,3,4,9-tetrahydro-2H-pyrido[3,4-b]indol-2-yl)-2-methylpropanoic acid] | 95% | 90% | – | 1700 pM | 520 pM | – | – |
| COc1ccc(OCCNCCCF)c(F)c1[C@@H]1c2[nH]c3ccccc3c2C[C@@H](C)N1CC(F)(F)F [Example 11, 3-fluoro-N-(2-(2-fluoro-4-methoxy-3-((1R,3R)-3-methyl-2-(2,2,2-trifluoroethyl)-2,3,4,9-tetrahydro-1H-pyrido[3,4-b]indol-1-yl)phenoxy)ethyl)propan-1-amine] | 92% | 94% | – | 1200 pM | 140 pM | – | – |
| C[C@@H]1Cc2c([nH]c3ccccc23)[C@@H](c2cc(OCCNCCCF)ccc2Cl)N1CC(F)(F)F [Example 22, N-(2-(4-chloro-3-((1R,3R)-3-methyl-2-(2,2,2-trifluoroethyl)-2,3,4,9-tetrahydro-1H-pyrido[3,4-b]indol-1-yl)phenoxy)ethyl)-3-fluoropropan-1-amine] | 96% | 96% | 0.7 µM (≈ 0.349 µg/mL) | 1400 pM | 120 pM | 4.2 | 0.61 % free |
| C[C@@H]1Cc2c([nH]c3ccccc23)[C@@H](c2c(F)ccc(OCCNCCCF)c2F)N1C[C@H](C)C(=O)O [Example 58, (S)-3-((1R,3R)-1-(2,6-difluoro-3-(2-((3-fluoropropyl)amino)ethoxy)phenyl)-3-methyl-1,3,4,9-tetrahydro-2H-pyrido[3,4-b]indol-2-yl)-2-methylpropanoic acid] | 83% | 76% | > 1000 µM | – | – | – | – |
| C[C@@H]1Cc2c([nH]c3ccccc23)[C@@H](c2c(F)cnc(OCCNCCCF)c2F)N1CC(F)(F)CO [Example 64, 3-((1R,3R)-1-(3,5-difluoro-2-(2-((3-fluoropropyl)amino)ethoxy)pyridin-4-yl)-3-methyl-1,3,4,9-tetrahydro-2H-pyrido[3,4-b]indol-2-yl)-2,2-difluoropropan-1-ol] | 98% | 96% | – | 960 pM | 71 pM | – | – |
| Cc1c(OCCNCCCF)ccc(F)c1[C@@H]1c2[nH]c3ccc(F)cc3c2C[C@@H](C)N1C[C@@H](C)C(=O)O [Example 121, (R)-3-((1R,3R)-6-fluoro-1-(6-fluoro-3-(2-((3-fluoropropyl)amino)ethoxy)-2-methylphenyl)-3-methyl-1,3,4,9-tetrahydro-2H-pyrido[3,4-b]indol-2-yl)-2-methylpropanoic acid] | 107% | 85% | – | 2800 pM | 530 pM | – | – |
